Paper PMC6383929, “Design, antimicrobial activity and mechanism of action of Arg-rich ultra-short cationic lipopeptides” (PLoS ONE, 2019)
Converted amounts (≈) assume the structure as drawn. Where a SMILES comes first, the peptide text is derived from it. The star is where a group is joined. Lauroyl = CCCCCCCCCCCC(=O)*

Assays:
S. aureus ATCC 25923 = type: cell-based, Staphylococcus aureus; settings: ATCC 25923, 24 h
Text: (§1) Bacteria used in this study were Escherichia coli ATCC 25922 and O18K1H7, Staphylococcus aureus ATCC 25923 and ATCC 29213, Pseudomonas aeruginosa ATCC 27853, Staphylococcus epidermidis ATCC 12228, Enterococcus faecalis ATCC 29212, Bacillus subtilis DSM 4181, Listeria monocytogenes DSM 20600, Salmonella typhimurium ATCC 14028, Acinetobacter baumannii ATCC 19606 and 17978, Klebsiella pneumoniae ATCC 13883 and 700603, Stenotrophomonas maltophilia ATCC 13637 and Burkholderia cenocepacia J2315. In addition to reference strains, a clinical isolate of E. faecalis vancomycin-resistant (VREF, strain M), and three clinical isolates of S. aureus methicillin-resistant (MRSA, strains E, G and 11), kindly provided by Dr. Lucilla Dolzani, were used. All MRSA strains are resistant to GEN, IPM, OXA, PEN, CIP and CEF; the S. aureus E strain is also resistant to CLI and ERY. VREF strain is resistant to AMK, ATM, GEN, NET, PEN, TEC, TET, TOB and VAN.
(§2) For the assays, overnight bacterial cultures were diluted 1:30 in fresh Mueller-Hinton Broth (MHB, Difco) and incubated at 37°C with shaking for approximately 2h.
(§3) The antimicrobial activity of USCLs was determined by the Minimum Inhibitory Concentration (MIC) assay, according to the guidelines of CLSI (Clinical & Laboratory Standards Institute) and described in [30, 31]. Briefly, the assays were performed in 96-well microplates in appropriate broth (MHB or SAB). […] For bacteria, a mid-log phase bacterial suspension at 2.5 × 10^5 CFU/mL in MHB was used, and the microplates incubated at 37°C for 24h. The fungal suspension in SAB broth was used at a final concentration of 5 × 10^4 cells/mL. Microplates were then incubated at 30°C for 48h. The MIC value was taken as the lowest concentration of USCLs resulting in the complete inhibition of visible bacterial or fungal growth after appropriate incubation time. Results derive from at least three independent experiments carried out in duplicate.

[1] = tested on: S. aureus E (MRSA clinical isolate); type: cell-based, Staphylococcus aureus; settings: E ( clinical isolate, 24 h)
Text: as §1, §2, §3

[2] = tested on: S. aureus 11 (MRSA clinical isolate); type: cell-based, Staphylococcus aureus; settings: 11 ( clinical isolate, 24 h)
Text: as §1, §2, §3

[3] = tested on: S. aureus G (MRSA clinical isolate); type: cell-based, Staphylococcus aureus; settings: G ( clinical isolate, 24 h)
Text: as §1, §2, §3

A. baumannii ATCC 17978 = type: cell-based, Acinetobacter baumannii; settings: ATCC 17978, 24 h
Text: as §1, §2, §3

A. baumannii ATCC 19606 = type: cell-based, Acinetobacter baumannii; settings: ATCC 19606, 24 h
Text: as §1, §2, §3

[4] = tested on: S. maltophilia ATCC 13637; type: cell-based, Stenotrophomonas maltophilia; settings: ATCC 13637, 48 h
Text: as §1, §2
as §3, with “For bacteria, a mid-log phase bacterial suspension at 2.5 × 10^5 CFU/mL in MHB was used, and the microplates incubated at 37°C for 24h.” left out

[5] = tested on: S. epidermidis ATCC 12228; type: cell-based, Staphylococcus epidermidis; settings: ATCC 12228, 24 h
Text: as §1, §2
The antimicrobial activity of USCLs was determined by the Minimum Inhibitory Concentration (MIC) assay, according to the guidelines of CLSI (Clinical & Laboratory Standards Institute) and described in [30, 31]. […]

B. subtilis DSM 4181 = type: cell-based, Bacillus subtilis; settings: DSM 4181, 24 h
Text: as §1, §2, §3

C. albicans ATCC 90029 = type: cell-based, Candida albicans; settings: ATCC 90029, 48 h
Method: (§4) Fungal strains used were Candida albicans ATCC 90029 and SC5314. Fungi were grown on Sabouraud dextrose (SAB, Difco) agar plates at 30°C for 48h. The initial fungal inoculum was prepared by picking and suspending five colonies in 5 mL of sterile PBS.
as §3

C. albicans SC 5314 = type: cell-based, Candida albicans; settings: SC 5314, 48 h
Method: as §4, §3

[6] = tested on: K. pneumoniae ATCC 700603; type: cell-based, Klebsiella pneumoniae; settings: ATCC 700603, 24 h
Text: as §1, §2, §3

K. pneumoniae ATCC 13883 = type: cell-based, Klebsiella pneumoniae; settings: ATCC 13883, 24 h
Text: as §1, §2, §3

[7] = RP-HPLC retention time (hydrophobicity); type: physicochemical; settings: stated to reliably reflect the hydrophobicity in aqueous solution, assessed and provided by GenScript
Method: GenScript (Piscataway, NJ, USA) carried out the custom synthesis of USCLs by using high efficient solid phase peptide synthesis. The fatty acid was conjugated to the N-terminus of the peptide using the same procedure followed to attach protected amino acids to the growing peptide chain for synthesis. The purity (>90%), sequence and molecular weight of USCLs were assessed and provided by GenScript using RP-HPLC and ESI-MS. USCLs were dissolved in sterile water or DMSO at 10 mg/mL, according to manufacturer's indications.

B. cenocepacia J2315 = type: cell-based, Burkholderia cenocepacia; settings: 48 h
Text: as §1, §2
as §3, with “For bacteria, a mid-log phase bacterial suspension at 2.5 × 10^5 CFU/mL in MHB was used, and the microplates incubated at 37°C for 24h.” left out

E. coli O18K1H7 = type: cell-based, Escherichia coli; settings: O18K1H7, 24 h
Text: as §1, §2, §3

[8] = tested on: E. faecalis M (VREF clinical isolate); type: cell-based, Enterococcus faecalis; settings: M (VREF clinical isolate, 24 h)
Text: as §1, §2, §3

E. faecalis ATCC 29212 = type: cell-based, Enterococcus faecalis; settings: ATCC 29212, 24 h
Text: as §1, §2, §3

[9] = tested on: L. monocytogenes DSM 20600; type: cell-based, Listeria monocytogenes; settings: DSM 20600, 24 h
Text: as §1, §2, §3

S. aureus ATCC 29213 = type: cell-based, Staphylococcus aureus; settings: ATCC 29213, 24 h
Text: as §1, §2, §3

[10] = tested on: S. typhimurium ATCC 14028; type: cell-based, Salmonella typhimurium; settings: ATCC 14028, 24 h
Text: as §1, §2, §3

P. aeruginosa ATCC 27853 = type: cell-based, Pseudomonas aeruginosa; settings: ATCC 27853, 24 h
Text: as §1, §2, §3

E. coli ATCC 25922 = type: cell-based, Escherichia coli; settings: ATCC 25922, 24 h
Text: as §1, §2, §3

SMILES | MIC (S. aureus ATCC 25923) | MIC [1] | MIC [2] | MIC [3] | MIC (A. baumannii ATCC 17978) | MIC (A. baumannii ATCC 19606) | MIC [4] | MIC (B. subtilis DSM 4181) | MIC (C. albicans ATCC 90029) | MIC (C. albicans SC 5314) | MIC [6] | MIC (K. pneumoniae ATCC 13883) | Retention time [7] | MIC (B. cenocepacia J2315) | MIC (E. coli O18K1H7) | MIC [8] | MIC (E. faecalis ATCC 29212) | MIC [9] | MIC (S. aureus ATCC 29213) | MIC [10] | also measured
CCCCCCCCCCCC(=O)N[C@@H](CCCNC(=N)N)C(=O)N[C@@H](CCSC)C(=O)N[C@@H](Cc1c[nH]c2ccccc12)C(=O)N[C@@H](CCCNC(=N)N)C(N)=O [Lp-M, Lau-RMWR-NH2] (Lauroyl-RMWR-NH2) | 6.25 µg/mL (≈ 7.54 µM) | 6.25 µg/mL (≈ 7.54 µM) | 6.25 µg/mL (≈ 7.54 µM) | 6.25 µg/mL (≈ 7.54 µM) | 25 µg/mL (≈ 30.2 µM) | 25 µg/mL (≈ 30.2 µM) | 12.5 µg/mL (≈ 15.1 µM) | 3.125 µg/mL (≈ 3.77 µM) | 3.125 µg/mL (≈ 3.77 µM) | 12.5 µg/mL (≈ 15.1 µM) | 100 µg/mL (≈ 121 µM) | >100 µg/mL | 12.393 min | 25 µg/mL (≈ 30.2 µM) | 25 µg/mL (≈ 30.2 µM) | 12.5 µg/mL (≈ 15.1 µM) | 6.25 µg/mL (≈ 7.54 µM) | 3.125 µg/mL (≈ 3.77 µM) |  |  | MIC [5]: 3.125 µg/mL (≈ 3.77 µM)
CCCCCCCCCCCC(=O)N[C@@H](CCCNC(=N)N)C(=O)N[C@H](C(=O)N[C@@H](Cc1c[nH]c2ccccc12)C(=O)N[C@@H](CCCNC(=N)N)C(N)=O)[C@@H](C)CC [Lp-I] (Lauroyl-RIWR-NH2) |  | 3.125 µg/mL (≈ 3.85 µM) |  | 3.125 µg/mL (≈ 3.85 µM) | 25 µg/mL (≈ 30.8 µM) | 25 µg/mL (≈ 30.8 µM) |  |  |  |  | 50 µg/mL (≈ 61.6 µM) | 100 µg/mL (≈ 123 µM) |  | 12.5 µg/mL (≈ 15.4 µM) |  |  |  |  | 3.125 µg/mL (≈ 3.85 µM) | 25 µg/mL (≈ 30.8 µM) | MIC [5]: 3.125 µg/mL (≈ 3.85 µM)
CCCCCCCCCCCC(=O)N[C@@H](CCCNC(=N)N)C(=O)N[C@@H](CCCNC(=N)N)C(=O)N[C@@H](Cc1ccccc1)C(=O)N[C@@H](Cc1c[nH]c2ccccc12)C(N)=O [Lau-RRFW, Lau-RRFW-NH2] (Lauroyl-RRFW-NH2) | 3.125 µg/mL (≈ 3.7 µM) | 3.125 µg/mL (≈ 3.7 µM) | 6.25 µg/mL (≈ 7.4 µM) | 6.25 µg/mL (≈ 7.4 µM) | 12.5 µg/mL (≈ 14.8 µM) | 12.5 µg/mL (≈ 14.8 µM) | 6.25 µg/mL (≈ 7.4 µM) |  | 3.125 µg/mL (≈ 3.7 µM) | 12.5 µg/mL (≈ 14.8 µM) | 25 µg/mL (≈ 29.6 µM) | 50 µg/mL (≈ 59.2 µM) | 22.609 min | 12.5 µg/mL (≈ 14.8 µM) | 12.5 µg/mL (≈ 14.8 µM) |  | 6.25 µg/mL (≈ 7.4 µM) | 3.125 µg/mL (≈ 3.7 µM) | 3.125 µg/mL (≈ 3.7 µM) |  | 
CCCCCCCCCCCC(=O)N[C@@H](CCCNC(=N)N)C(=O)N[C@@H](CCCNC(=N)N)C(=O)N[C@H](C(=O)N[C@@H](Cc1c[nH]c2ccccc12)C(N)=O)[C@@H](C)CC [Lau-RRIW, Lau-RRIW-NH2] (Lauroyl-RRIW-NH2) | 3.125 µg/mL (≈ 3.85 µM) | 3.125 µg/mL (≈ 3.85 µM) |  | 3.125 µg/mL (≈ 3.85 µM) | 25 µg/mL (≈ 30.8 µM) | 12.5 µg/mL (≈ 15.4 µM) | 12.5 µg/mL (≈ 15.4 µM) | 3.125 µg/mL (≈ 3.85 µM) | 3.125 µg/mL (≈ 3.85 µM) | 12.5 µg/mL (≈ 15.4 µM) |  |  | 20.957 min | 6.25 µg/mL (≈ 7.71 µM) | 12.5 µg/mL (≈ 15.4 µM) | 6.25 µg/mL (≈ 7.71 µM) | 6.25 µg/mL (≈ 7.71 µM) | 3.125 µg/mL (≈ 3.85 µM) | 3.125 µg/mL (≈ 3.85 µM) | 25 µg/mL (≈ 30.8 µM) | MIC (P. aeruginosa ATCC 27853): 12.5 µg/mL (≈ 15.4 µM); MIC (E. coli ATCC 25922): 12.5 µg/mL (≈ 15.4 µM)
CCCCCCCCCCCC(=O)N[C@@H](CCCNC(=N)N)C(=O)N[C@@H](CCCNC(=N)N)C(=O)N[C@@H](Cc1ccccc1)C(=O)N[C@@H](Cc1c[nH]c2ccccc12)C(=O)N[C@@H](CCCNC(=N)N)C(=O)N[C@@H](CCCNC(=N)N)C(N)=O [Lp-F^RR, Lau-RRFWRR-NH2] (Lauroyl-RRFWRR-NH2) | 3.125 µg/mL (≈ 2.7 µM) | 3.125 µg/mL (≈ 2.7 µM) | 3.125 µg/mL (≈ 2.7 µM) | 3.125 µg/mL (≈ 2.7 µM) | 25 µg/mL (≈ 21.6 µM) |  | 12.5 µg/mL (≈ 10.8 µM) | 1.56 µg/mL (≈ 1.35 µM) | 1.56 µg/mL (≈ 1.35 µM) | 100 µg/mL (≈ 86.4 µM) | 25 µg/mL (≈ 21.6 µM) | 25 µg/mL (≈ 21.6 µM) | 22.087 min | 12.5 µg/mL (≈ 10.8 µM) | 25 µg/mL (≈ 21.6 µM) | 6.25 to 12.5 µg/mL | 6.25 µg/mL (≈ 5.4 µM) | 1.56 µg/mL (≈ 1.35 µM) |  | 25 µg/mL (≈ 21.6 µM) | MIC (P. aeruginosa ATCC 27853): 12.5 µg/mL (≈ 10.8 µM); MIC (E. coli ATCC 25922): 12.5 µg/mL (≈ 10.8 µM)
